Measured values reported in paper PMC9030166, “Natural Phaeosphaeride A Derivatives Overcome Drug Resistance of Tumor Cells and Modulate Signaling Pathways” (Pharmaceuticals, 2022).

Legend:
[1] = tested on: CMT № 1 (Extraskeletal Ewing’s Sarcoma); test: MTT cytotoxicity, primary culture of soft tissue sarcoma CMT № 1; assay type: cell-based; settings: Homo sapiens, 48 h
Source text: It is believed that such cultures have a molecular profile that corresponds more with cells from the human body, in comparison with that of stable cultures of tumor cells (Table 3).
(§1) Cell cultures used in the work: adhesive cultures HBL-100 cells (cells of a normal mammary gland epithelium, immortalized by the SV40 virus and acquired tumorigenicity); MCF-7 breast cancer cells; PC-3 prostate adenocarcinoma cells; HCT-116 colorectal cancer cells; non-small cell lung cancer cells A549; human embryonic kidney cells HEK293; suspension cultures (NCI-H929 and RPMI8226 multiple myeloma cells), K562 chronic myeloid leukemia cells; THP-1 acute monocytic leukemia cells; and Jurkat acute T-cell leukemia cells. We also used several primary cultures of soft tissue sarcomas at 3–4passeges, kindly provided by T.I. Fetisov (The Ethics Committee of N.N. Blokhin NMRCO, protocol code 18-28-09095 and date of approval 28 September 2018).
(§2) Modifications of cell lines: K562/i-S9 is a clone obtained after transfection of K562 cells with the ABCB1 (MDR1) gene-encoding P-glycoprotein [36]. Cells HBL-100/Dox and K562/i-S9_Dox are cells obtained by long-term selection with increasing concentrations of doxorubicin (Sigma-Aldrich, St. Louis, MO, USA) from HBL-100 and K562/i-S9 cells, respectively. MCF-7, A594 cells, and primary cultures of soft tissue sarcomas were cultured in DMEM medium (PanEko, Russia), PC-3 and HCT-116 cells and all suspension cultures in RPMI1640 medium (PanEko, Russia) supplemented with 10% fetal bovine serum (GE Healthcare LifeSciences, USA), and gentamicin at a concentration of 40 μg/mL at 37 °C and 5% CO2.
Cells MCF-7, PC-3, A549, and HCT-116, and primary cultures of STSwere seeded in 96-well plates, 6 × 10^3 cells per well in 90 μL of culture medium. Suspension cultures were seeded at a concentration of 25 × 10^3 cells per well in 135 μL of medium. The test substances were dissolved in DMSO (Applichem, Council Bluffs, IA, USA) until a concentration of 1 × 10^−^2 M was obtained; for the subsequent dilution of the substances, a serum-free culture medium was used. The next day, for adhesive cultures, and on the same day, for suspension cultures, substances were added to the plates in a volume of 10 μL (adhesive cultures) and 15 μL (suspension cultures) per well at various concentrations; each concentration was added in 3–4 repetitions. The cells were cultured in the presence of substances for 48 h. […] The optical density was determined using a Multiskan FC spectrophotometer (Thermo Scientific, Waltham, MA, USA) at a wavelength of 540 nm.
Based on the results of the experiments, a schedule was plotted of the dependence of the percentage of surviving cells (from control) on the concentration of the compound, and the sought concentration IC50 was calculated. […]

Jurkat = test: MTT cytotoxicity, Jurkat acute T-cell leukemia cells; assay type: cell-based; settings: Homo sapiens, suspension culture, 48 h
Source text: as §1, §2
(§3) Cells MCF-7, PC-3, A549, and HCT-116, and primary cultures of STSwere seeded in 96-well plates, 6 × 10^3 cells per well in 90 μL of culture medium. Suspension cultures were seeded at a concentration of 25 × 10^3 cells per well in 135 μL of medium. The test substances were dissolved in DMSO (Applichem, Council Bluffs, IA, USA) until a concentration of 1 × 10^−^2 M was obtained; for the subsequent dilution of the substances, a serum-free culture medium was used. The next day, for adhesive cultures, and on the same day, for suspension cultures, substances were added to the plates in a volume of 10 μL (adhesive cultures) and 15 μL (suspension cultures) per well at various concentrations; each concentration was added in 3–4 repetitions. The cells were cultured in the presence of substances for 48 h. Then, MTT reagent (PanEko, Moscow, Russia) was added to the wells at a concentration of 5 mg/mL in a volume of 20 μL per well. After 1.5–2 h, the medium with the reagent was removed, and the precipitate of the crystals of formazan was dissolved in 60 μL of DMSO. The optical density was determined using a Multiskan FC spectrophotometer (Thermo Scientific, Waltham, MA, USA) at a wavelength of 540 nm.
(§4) Based on the results of the experiments, a schedule was plotted of the dependence of the percentage of surviving cells (from control) on the concentration of the compound, and the sought concentration IC50 was calculated. The experiments were carried out in 3–4 times.

STAT3 (pSer727) = test: MILLIPLEX MAP 9-Plex, STAT3 active form in A431 lysates; assay type: cell-based, human; settings: 10 μM; for STAT3 (pSer727) fluorescence intensity: A431 cell lysates, 1 h, M ± mx, control 70.7 ± 18.3
Source text: (§5) We used the MILLIPLEX MAP Multi-Pathway Magnetic Bead 9-Plex-Cell Signaling Multiplex Assay, which allows the simultaneous detection of nine phosphorylated proteins that are markers of the main intracellular signaling pathways (phosphorylation site is indicated in parentheses), a universal transcription factor that controls the expression of immune response genes; apoptosis and cell cycle NFκB (pS536); cAMP-dependent transcription factor (CREB (pS133); mitogen-activated kinase p38 (pT180/pY182); stress-activated protein kinase JNK (pT183/pY185); ribosomal […]; transcription factors STAT3 (pS727) and STAT5A/B (pY694/699); protein kinase B (Akt) (pS473); and kinase regulated by extracellular signals ERK1/2 (pT185/pY187).
(§6) The effect of various concentrations of PPA derivatives on the cell culture was studied using xCelligence RTCA equipment (AceaBioscience, San Diego, CA, USA). The concentration closest to the IC50 (10 μM) was chosen as the experimental concentration. The selected concentration of phaeosphaeride A derivatives allows for the assessment of the early effect of compounds on cells and compares their effectiveness. In this experiment, the signaling pathways Akt (pSer473), p70S6K (pThr412), NFkB (p65-pSer536), and CREB (pSer133) were not activated (Table 8). The stress-activated signaling pathways ERK/MAP kinase 1/2 (pThr185/pTyr187), JNK (pThr183/pTyr185), and p38 (pThr180/pTyr182) were activated for these compounds.
(§7) We used a MILLIPLEX MAP Multi-Pathway Magnetic Bead 9-Plex-Cell Signaling Multiplex Assay kit (Merck/Millipore), according to the manufacturer’s protocol. A431 cells were cultured in DMEM with 10% FBS in 24-well plates. Compounds were added to the subconfluent cells at a concentration of 10 μM in DMEM medium for 1 h. Each compound was added in 5 experimental repeats. Cell lysates were prepared with lysis buffer (Millipore) with protease inhibitors (Complete, Roche); the protein concentration in the lysates was determined by the Lowry method. In samples equalized in protein concentration, the active forms of kinase cascades were determined using a Bio-Plex 200 fluorescent analyzer (Bio-Rad).

HBL-100 = test: MTT cytotoxicity, sensitive HBL-100 cells; assay type: cell-based; settings: Homo sapiens, 48 h
Source text: as §1, §3, §4

STAT5 (pTyr694/699) = test: MILLIPLEX MAP 9-Plex, STAT5 active form in A431 lysates; assay type: cell-based, human; settings: 10 μM; for STAT5 (pTyr694/699) fluorescence intensity: A431 cell lysates, 1 h, M ± mx, control 44.2 ± 10.2
Source text: as §5, §6, §7

THP-1 = test: MTT cytotoxicity, THP-1 acute monocytic leukemia cells; assay type: cell-based; settings: Homo sapiens, suspension culture, 48 h
Source text: as §1, §2, §3, §4

K562 = test: MTT cytotoxicity, K562 chronic myeloid leukemia cells; assay type: cell-based; settings: Homo sapiens, K562, suspension culture, 48 h (Table 2)
Source text: as §1, §2, §3, §4

| Compound | IC50 [1] [µM] | IC50 (Jurkat) [µM] | STAT3 (pSer727) fluorescence intensity (STAT3 (pSer727)) | IC50 (HBL-100) [µM] | STAT5 (pTyr694/699) fluorescence intensity (STAT5 (pTyr694/699)) | IC50 (THP-1) [µM] | IC50 (K562) [µM] | activation of transcription factor STAT3 (pSer727), in words (STAT3 (pSer727); A431 cells) | activation of transcription factor STAT5A/B (pTyr694/699), in words (STAT5 (pTyr694/699); A431 cells) |
| --- | --- | --- | --- | --- | --- | --- | --- | --- | --- |
| C=C1C2=C(C(=O)N1OC)[C@@H](N1CCCC1)[C@@](C)(O)[C@H](CCCCC)O2 [Compound 1] | 2.6 ± 1.1 | 1.5 ± 0.4 | 163.0 ± 20.7 *↑ rel. units | 6.2 ± 0.8 | 115.4 ± 28.3 rel. units | 1.5 ± 0.4 | 3.8 ± 0.6 |  |  |
| C=C1C2=C(C(=O)N1OC)[C@@H](N(C)C)[C@@](C)(O)[C@H](CCCCC)O2 [Compound 2, (2S,3R,4R)-4-(dimethylamino)-3-hydroxy-6-methoxy-3-methyl-7-methylene-2-pentyl-3,4,6,7-tetrahydropyrano[2,3-c]pyrrol-5(2H)-one] | 1.6 ± 0.7 | 1.1 ± 0.1 | 272.3 ± 50.5 *↑ rel. units | 4.9 ± 1 | 179.2 ± 12.6 *↑ rel. units | 0.9 ± 0.3 | 2.4 ± 0.7 | slightly activated | slightly activated |
| C=C1C2=C(C(=O)N1OC)[C@@H](N(CCCC)CCCC)[C@@](C)(O)[C@H](CCCCC)O2 [Compound 5, (2S,3R,4R)-4-(dibutylamino)-3-hydroxy-6-methoxy-3-methyl-7-methylene-2-pentyl-3,4,6,7-tetrahydropyrano[2,3-c]pyrrol-5(2H)-one] |  | 3.7 ± 0.2 | 123.4 ± 8.3 *↑ rel. units |  | 75.7 ± 2.7 *↑ rel. units | 8.2 ± 0.6 | 6.5 ± 0.5 |  |  |
| C=C1C2=C(C(=O)N1OC)[C@@H](N(CC)CCO)[C@@](C)(O)[C@H](CCCCC)O2 [Compound 9, (2S,3R,4R)-4-[ethyl(2-hydroxyethyl)amino]-3-hydroxy-6-methoxy-3-methyl-7-methylene-2-pentyl-3,4,6,7-tetrahydropyrano[2,3-c]pyrrol-5(2H)-one] | 2.9 ± 1.1 | 1.3 ± 0.4 | 151.5 ± 28.7 rel. units | 6.5 ± 0.8 | 69.6 ± 15.6 rel. units | 1.7 ± 0.2 | 3.7 ± 0.5 |  |  |
| CCCCC[C@@H]1OC2=C(C(=O)N(OC)/C2=C\n2cnnc2)C(n2cnnc2)[C@@]1(C)O (stereo partly drawn) [Compound 10] |  | 94 ± 22.6 | 178.9 ± 13.4 *↑ rel. units |  | 115.2 ± 16.9 *↑ rel. units | 42 ± 5.2 | 45 ± 5.4 |  |  |
